Values belong to the compound of their own block, whether it stands above or below them.
Assays:
Ch-CPN [1] = molecular target: T1, Ch-CPN (Carboxydothermus hydrogenoformans, UniProt Q3AF10); assay: X-ray crystal structure, […] Å; assay type: binding; conditions: closed conformation; nucleotide site of equatorial domain; Mg2+; 3 mM AMPPNP, pH 7.5
T1 construct: gene CHY_0413; full-length wild type, 521 residues; recombinant from E. coli BL21(DE3), no tag mentioned; homo-hexadecamer of two octameric rings; residues 10-502 (5X9V) and 9-502 (5X9U) modelled
T1 sequence (Q3AF10 1-521): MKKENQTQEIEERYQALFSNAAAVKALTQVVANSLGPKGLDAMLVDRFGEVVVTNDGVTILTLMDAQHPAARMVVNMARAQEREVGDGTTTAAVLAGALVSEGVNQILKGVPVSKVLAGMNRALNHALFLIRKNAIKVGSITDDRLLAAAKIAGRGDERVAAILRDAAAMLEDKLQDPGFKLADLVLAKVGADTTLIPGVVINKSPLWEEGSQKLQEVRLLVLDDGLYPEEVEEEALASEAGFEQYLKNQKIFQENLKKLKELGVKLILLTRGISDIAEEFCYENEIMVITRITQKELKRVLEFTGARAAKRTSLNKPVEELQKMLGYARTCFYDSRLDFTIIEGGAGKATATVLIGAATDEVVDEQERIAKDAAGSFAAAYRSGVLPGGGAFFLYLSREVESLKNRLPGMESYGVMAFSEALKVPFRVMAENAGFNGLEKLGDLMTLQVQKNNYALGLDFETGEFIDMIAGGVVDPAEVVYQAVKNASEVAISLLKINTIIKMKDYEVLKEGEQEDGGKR

[2] = molecular target: Ch-CPN L439A pivot joint mutant (Carboxydothermus hydrogenoformans) (UniProt Q3AF10); assay: not stated; L439A subunits purified as hexadecameric chaperonins (Supplementary Fig. 12b)
Ch-CPN [3] = molecular target: T1, Ch-CPN; assay: X-ray crystal structure, […] Å; assay type: binding; conditions: open conformation; nucleotide site of equatorial domain; no Mg2+ seen; 3 mM ADP, pH 7.0
[4] = molecular target: Group III chaperonin from Carboxydothermus hydrogenoformans (Ch-CPN), wild type (Carboxydothermus hydrogenoformans) (UniProt Q3AF10); assay: crystal structure; Ch-CPN with 3 mM AMPPNP, closed conformation; batch crystallisation at 22 °C, 20 mM MgCl2, 100 mM HEPES:NaOH pH 7.5; 3.0 Å

Compound: Nc1ncnc2c1ncn2[C@@H]1O[C@H](COP(=O)(O)OP(=O)(O)NP(=O)(O)O)[C@@H](O)[C@H]1O [AMPPNP]
X-ray crystal structure, 3.0 Å (Ch-CPN [1]): crystal structure of Ch-CPN in complex with AMPPNP, an ATP analog, revealed its closed conformation

stoichiometry N [2]: 16
Compound: Ch-CPN L439A pivot joint mutant (from UniProt Q3AF10 1-521) (natural protein)

Compound: Nc1ncnc2c1ncn2[C@@H]1O[C@H](COP(=O)(O)OP(=O)(O)O)[C@@H](O)[C@H]1O [ADP]
X-ray crystal structure, 4.0 Å (Ch-CPN [3]): The crystal structure of the ADP-bound Ch-CPN shows its fully open conformation

stoichiometry N [4]: 16
Compound: Group III chaperonin from Carboxydothermus hydrogenoformans (Ch-CPN), wild type (from UniProt Q3AF10 1-521) (natural protein)
